IC50 data for 21 molecules are collected here from patent publication US7473790B2 (Pfizer Inc., priority 2003, dated 2009).

Molecules are shown by their SMILES.

Broadly, the IC50 is the point on the concentration scale where inhibition reaches its midpoint.

The target of the assay is T1, HCV polymerase (Hepatitis C virus genotype 1b, UniProt P26663).
T1 construct: 2.5 pmoles (0.15 μg) HCV polymerase protein in a final volume of 75 μL
T1 sequence (P26663 2420-3010): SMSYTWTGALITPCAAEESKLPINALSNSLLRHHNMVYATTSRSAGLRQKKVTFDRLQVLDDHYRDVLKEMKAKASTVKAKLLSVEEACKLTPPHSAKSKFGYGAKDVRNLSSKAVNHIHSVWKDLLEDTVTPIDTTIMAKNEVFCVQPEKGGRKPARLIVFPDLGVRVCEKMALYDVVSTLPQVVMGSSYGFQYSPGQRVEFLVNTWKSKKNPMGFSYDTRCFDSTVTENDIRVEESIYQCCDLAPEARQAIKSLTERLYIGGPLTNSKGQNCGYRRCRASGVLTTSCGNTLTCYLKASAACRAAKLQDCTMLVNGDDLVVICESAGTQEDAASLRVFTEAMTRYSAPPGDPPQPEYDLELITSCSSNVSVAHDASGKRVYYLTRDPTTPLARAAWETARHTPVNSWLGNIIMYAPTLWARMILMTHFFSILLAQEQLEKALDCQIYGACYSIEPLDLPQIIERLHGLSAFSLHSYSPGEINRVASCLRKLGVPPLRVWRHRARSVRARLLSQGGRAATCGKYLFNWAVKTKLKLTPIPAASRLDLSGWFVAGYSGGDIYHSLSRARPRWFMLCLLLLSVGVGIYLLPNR
In words: HCV polymerase primer/template-directed transcription assay (32P-GTP incorporation, filter binding). The class given is biochemical. Particulars: recombinant HCV polymerase; 30 minutes at 30° C.; concentration giving 50% inhibition of polymerase-directed transcription; read-out: IC50. As to the method:
The compounds described herein were tested for activity with HCV polymerase. Recombinant HCV polymerase was tested for its ability to perform primer/template-directed transcription in assays that contained 30 mM tris-HCl pH 7.2, 10 mM MgCl2, 20 mM NaCl, 1 mM Dithiothreitol (DTT), 0.05% Tween-20, 1% glycerol, 5 pmoles biotin-dG12 (primer), 0.5 pmoles poly(rC)300 (template), 1 μM GTP, 0.1-0.3 uCi α-^32P-GTP, and 2.5 pmoles (0.15 μg) HCV polymerase protein in a final volume of 75 μL. Reactions were initiated by addition of enzyme and incubated 30 minutes at 30° C. Reactions were stopped by addition of 33 mM EDTA, and polynucleotide products were collected by filtration through Diethylaminoethyl (DE) Filtermat papers (Wallac). Unincorporated triphosphate was removed by washing the filters with 5% dibasic sodium phosphate. The filters were counted in a Packard Tri-Lux Microbeta scintillation counter (Packard Bioscience, Meriden, Conn.). Compounds to be tested were added at various concentrations, e.g., 1 μm to 50 μm, from stocks in 10% DMSO-water (final DMSO is 1% in reaction).
IC50 values were estimated from the primary cpm data (collected in triplicate) using the formula: cpm (I)=cpm(no inhibitor)(1−([I]/([I]+IC50))). An IC50 value represents the concentration (in μM) of a compound that provides 50% inhibition of polymerase-directed transcription in the above assay. A percent inhibition value is expressed for a compound where it was impractical to calculate an IC50 value with available data. If the IC50 estimated by the above equation was less than 200 nM, it was recalculated using the following equation, which takes into account the enzyme concentration (30 nM) in the assay: cpm(I)=cpm(no inhibitor)(1−((((I+IC50+30e−9)−sqrt(((I+IC50+30e−9)^2)−4×30e−9×I)))/((2)(30e−9))). Curve fitting was performed using the program KaleidaGraph (Synergy Software, Reading, Pa.).
As for `CC(C)Oc1ccc(CCC2(C3CCCC3)CC(=O)CC(=O)O2)cc1F` (single isomer, unassigned) [J(1), 6-cyclopentyl-6-[2-(3-fluoro-4-isopropoxyphenyl)ethyl]dihydro-2H-pyran-2,4(3H)-dione], the IC50 was found to be 4400 nM.
As to `CC(C)Oc1ccc(CCC2(C3CCCC3)CC(=O)CC(=O)O2)cc1F` (single isomer, unassigned) [J(2), 6-cyclopentyl-6-[2-(3-fluoro-4-isopropoxyphenyl)ethyl]dihydro-2H-pyran-2,4(3H)-dione], the half-inhibitory concentration (IC50) was found to be 3900 nM.
`Cc1cc(C)n2nc(CC3=C(O)CC(CCc4ccc(OC(C)C)c(F)c4)(C4CCCC4)OC3=O)nc2n1` (single isomer, unassigned) [J(3), 6-cyclopentyl-3-[(5,7-dimethyl[1,2,4]triazolo[1,5-a]pyrimidin-2-yl)methyl]-6-[2-(3-fluoro-4-isopropoxyphenyl)ethyl]-4-hydroxy-5,6-dihydro-2H-pyran-2-one]: the IC50 came to 5 nM.
For the molecule `Cc1cc(C)n2nc(CC3=C(O)CC(CCc4ccc(OC(C)C)c(F)c4)(C4CCCC4)OC3=O)nc2n1` (single isomer, unassigned) [J(4), 6-cyclopentyl-3-[(5,7-dimethyl[1,2,4]triazolo[1,5-a]pyrimidin-2-yl)methyl]-6-[2-(3-fluoro-4-isopropoxyphenyl)ethyl]-4-hydroxy-5,6-dihydro-2H-pyran-2-one], the 50% inhibitory concentration (IC50) is 19 nM.
As to `CCc1cccc(CCC2(C3CCCC3)CC(=O)CC(=O)O2)c1` (single isomer, unassigned) [J(5), 6-Cyclopentyl-6-[2-(3-ethyl-phenyl)-ethyl]-dihydro-pyran-2,4-dione], the IC50 is 1900 nM.
For `CCc1cccc(CCC2(C3CCCC3)CC(=O)CC(=O)O2)c1` (single isomer, unassigned) [J(6), 6-Cyclopentyl-6-[2-(3-ethyl-phenyl)-ethyl]-dihydro-pyran-2,4-dione] the value was 1200 nM.
As for `CCc1cccc(CCC2(C3CCCC3)CC(O)=C(Cc3nc4nc(C)cc(C)n4n3)C(=O)O2)c1` (single isomer, unassigned) [J(7), 6-Cyclopentyl-3-(5,7-dimethyl-[1,2,4]triazolo[1,5-a]pyrimidin-2-ylmethyl)-6-[2-(3-ethyl-phenyl)-ethyl]-4-hydroxy-5,6-dihydro-pyran-2-one], the IC50 was 10 nM.
For `CCc1cccc(CCC2(C3CCCC3)CC(O)=C(Cc3nc4nc(C)cc(C)n4n3)C(=O)O2)c1` (single isomer, unassigned) [J(8), 6-Cyclopentyl-3-(5,7-dimethyl-[1,2,4]triazolo[1,5-a]pyrimidin-2-ylmethyl)-6-[2-(3-ethyl-phenyl)-ethyl]-4-hydroxy-5,6-dihydro-pyran-2-one] the value was 14 nM; for `Cc1cnc2nc(CC3C(=O)CC(CCc4ccc(C(C)(C)C#N)c(F)c4)(C4CCCC4)OC3=O)nn2c1` (single isomer, unassigned; (+)) [A(109), (+)-2-(4-{2-[2-Cyclopentyl-5-(6-methyl-[1,2,4]triazolo[1,5-a]pyrimidin-2-ylmethyl)-4,6-dioxo-tetrahydro-pyran-2-yl]-ethyl}-2-fluoro-phenyl)-2-methyl-propionitrile], 4 nM; for `CC(C)(C#N)c1ccc(CCC2(C3CCCC3)CC(O)=C(Cc3nc4ncc(Cl)cn4n3)C(=O)O2)cc1F` (single isomer, unassigned; (+)) [A(248), (+)-2-(4-{2-[5-(6-Chloro-[1,2,4]triazolo[1,5-a]pyrimidin-2-ylmethyl)-2-cyclopentyl-4,6-dioxo-tetrahydro-pyran-2-yl]-ethyl}-2-fluoro-phenyl)-2-methyl-propionitrile], 16 nM.
For the molecule `CC(C)(C#N)c1c(F)cc(CCC2(C3CCCC3)CC(O)=C(Cc3nc4ncc(Cl)cn4n3)C(=O)O2)cc1F` (single isomer, unassigned; (+)) [A(259), (+)-2-(4-{2-[5-(6-Chloro-[1,2,4]triazolo[1,5-a]pyrimidin-2-ylmethyl)-2-cyclopentyl-4-hydroxy-6-oxo-3,6-dihydro-2H-pyran-2-yl]-ethyl}-2,6-difluoro-phenyl)-2-methyl-propionitrile], the half-inhibitory concentration (IC50) came out at 6 nM.
Turning to `CCC(C#N)(CC)c1c(F)cc(CCC2(C3CCCC3)CC(O)=C(Cc3nc4ncc(C)cn4n3)C(=O)O2)cc1F` (single isomer, unassigned; (+)) [A(263), (+)-2-(4-{2-[2-Cyclopentyl-4-hydroxy-5-(6-methyl-[1,2,4]triazolo[1,5-a]pyrimidin-2-ylmethyl)-6-oxo-3,6-dihydro-2H-pyran-2-yl]-ethyl}-2,6-difluoro-phenyl)-2-ethyl-butyronitrile], the IC50 was 7 nM.
As to `CCC(C#N)(CC)c1ccc(CCC2(C3CCCC3)CC(O)=C(Cc3nc4ncc(Cl)cn4n3)C(=O)O2)cc1F` (single isomer, unassigned; (+)) [A(266), (+)-2-(4-{2-[5-(6-Chloro-[1,2,4]triazolo[1,5-a]pyrimidin-2-ylmethyl)-2-cyclopentyl-4-hydroxy-6-oxo-3,6-dihydro-2H-pyran-2-yl]-ethyl}-2-fluoro-phenyl)-2-ethyl-butyronitrile], the IC50 turned out to be 19 nM.
In the case of `Cc1cnc2nc(CC3C(=O)CC(CCc4ccc(C(C)(C)C#N)c(F)c4)(C4CCCC4)OC3=O)nn2c1` (single isomer, unassigned; (-)) [A(110), (−)-2-(4-{2-[2-Cyclopentyl-5-(6-methyl-[1,2,4]triazolo[1,5-a]pyrimidin-2-ylmethyl)-4,6-dioxo-tetrahydro-pyran-2-yl]-ethyl}-2-fluoro-phenyl)-2-methyl-propionitrile], the concentration for half-maximal inhibition (IC50) stood at 1 nM.
With `CCc1cc(CCC2(C3CCCC3)CC(O)=C(Cc3nc4nc(C)cc(C)n4n3)C(=O)O2)c(OC)cc1O` (single isomer, unassigned; (-)) [A(155), (−)-6-Cyclopentyl-3-(5,7-dimethyl-[1,2,4]triazolo[1,5-a]pyrimidin-2-ylmethyl)-6-[2-(5-ethyl-4-hydroxy-2-methoxy-phenyl)-ethyl]-4-hydroxy-5,6-dihydro-pyran-2-one] the figure was 3 nM; with `CC(C)(C#N)c1ccc(CCC2(C3CCCC3)CC(O)=C(Cc3nc4ncc(Cl)cn4n3)C(=O)O2)cc1F` (single isomer, unassigned; (-)) [A(249), (−)-2-(4-{2-[5-(6-Chloro-[1,2,4]triazolo[1,5-a]pyrimidin-2-ylmethyl)-2-cyclopentyl-4,6-dioxo-tetrahydro-pyran-2-yl]-ethyl}-2-fluoro-phenyl)-2-methyl-propionitrile], 19 nM.
With `Cc1cnc2nc(CC3=C(O)CC(CCc4cc(F)c(C(C)(C)C#N)c(F)c4)(C4CCCC4)OC3=O)nn2c1` (single isomer, unassigned; (-)) [A(258), (−)-2-(4-{2-[2-Cyclopentyl-4-hydroxy-5-(6-methyl-[1,2,4]triazolo[1,5-a]pyrimidin-2-ylmethyl)-6-oxo-3,6-dihydro-2H-pyran-2-yl]-ethyl}-2,6-difluoro-phenyl)-2-methyl-propionitrile] the figure was 2 nM; with `CC(C)(C#N)c1c(F)cc(CCC2(C3CCCC3)CC(O)=C(Cc3nc4ncc(Cl)cn4n3)C(=O)O2)cc1F` (single isomer, unassigned; (-)) [A(260), (−)-2-(4-{2-[5-(6-Chloro-[1,2,4]triazolo[1,5-a]pyrimidin-2-ylmethyl)-2-cyclopentyl-4-hydroxy-6-oxo-3,6-dihydro-2H-pyran-2-yl]-ethyl}-2,6-difluoro-phenyl)-2-methyl-propionitrile], 7 nM; with `CCC(C#N)(CC)c1c(F)cc(CCC2(C3CCCC3)CC(O)=C(Cc3nc4ncc(C)cn4n3)C(=O)O2)cc1F` (single isomer, unassigned; (-)) [A(264), (−)-2-(4-{2-[2-Cyclopentyl-4-hydroxy-5-(6-methyl-[1,2,4]triazolo[1,5-a]pyrimidin-2-ylmethyl)-6-oxo-3,6-dihydro-2H-pyran-2-yl]-ethyl}-2,6-difluoro-phenyl)-2-ethyl-butyronitrile], 4 nM.
For the molecule `CCC(C#N)(CC)c1ccc(CCC2(C3CCCC3)CC(O)=C(Cc3nc4ncc(Cl)cn4n3)C(=O)O2)cc1F` (single isomer, unassigned; (-)) [A(267), (−)-2-(4-{2-[5-(6-Chloro-[1,2,4]triazolo[1,5-a]pyrimidin-2-ylmethyl)-2-cyclopentyl-4-hydroxy-6-oxo-3,6-dihydro-2H-pyran-2-yl]-ethyl}-2-fluoro-phenyl)-2-ethyl-butyronitrile], the IC50 came out at 4 nM.
Regarding `CCc1ccc(O)c(CCC2(C3CCCC3)CC(O)=C(Cc3nc4nc(C)cc(C)n4n3)C(=O)O2)c1` (single isomer, unassigned; enantiomer 1) [A(167), Enantiomer 1 of 6-Cyclopentyl-3-(5,7-dimethyl-[1,2,4]triazolo[1,5-a]pyrimidin-2-ylmethyl)-6-[2-(5-ethyl-2-hydroxy-phenyl)-ethyl]-4-hydroxy-5,6-dihydro-pyran-2-one], the IC50 was 4 nM.
